US20230085307A1, “PYRIDAZINONE COMPOUND AND HERBICIDE” (NISSAN CHEMICAL CORPORATION, priority 2019, published 2023)

Key:
blackgrass [1] = experiment: Test Example 4: herbicidal effect by soil treatment (Table 19, symbol J); format: in vivo, blackgrass (Alopecurus myosuroides); conditions: AAH 320 g/ha
How it was run: (§1)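 Seeds were sown in sterilized diluvial soil and covered with about 1.5 cm of soil. An emulsion formulation diluted with water to a predetermined herbicide amount was sprayed evenly onto the soil surface. Plants grew in a greenhouse at 25° C. to 30° C., and the effect was scored three weeks after application using criteria from an earlier test.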

false cleavers = experiment: Test Example 5: herbicidal effect by foliage application, plastic box (Table 20, symbol Q); format: in vivo, false cleavers (Galium spurium); conditions: foliage application, AAH 320 g/ha, three weeks after application
How it was run: (§2)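 Plants sown in sterilized diluvial soil and grown 14 days in a greenhouse at 25° C to 30° C, then sprayed on the foliage with the compound's emulsion diluted in water to a predetermined herbicide amount. Injury to weeds and crops scored three weeks after application on a visual rating scale.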

rice flat sedge = experiment: Test Example 3: herbicidal effect by foliage application, Wagner pot (Table 18, symbol E); format: in vivo, rice flat sedge (Cyperus iria); conditions: 320 g/ha
How it was run: (§3)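 Plants were sown in alluvial soil held under 0.1–0.5 cm standing water and grown 14 days in a greenhouse at 25–30 °C. An emulsifiable formulation, water-diluted to the set dose, was then sprayed onto the foliage, and effects were scored three weeks later using previously defined criteria.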

Chinese sprangletop = experiment: Test Example 3: herbicidal effect by foliage application, Wagner pot (Table 18, symbol D); format: in vivo, chinese sprangletop (Leptochloa chinensis); conditions: 320 g/ha
How it was run: as §3

windgrass [2] = experiment: Test Example 4: herbicidal effect by soil treatment (Table 19, symbol L); format: in vivo, windgrass (Apera spica-venti); conditions: AAH 320 g/ha
How it was run: as §1

wild oat [3] = experiment: Test Example 5: herbicidal effect by foliage application, plastic box (Table 20, symbol I); format: in vivo, wild oat (Avena fatua); conditions: foliage application, AAH 320 g/ha, three weeks after application
How it was run: as §2

southern crabgrass [4] = experiment: Test Example 4: herbicidal effect by soil treatment (Table 19, symbol F); format: in vivo, southern crabgrass (Digitaria ciliaris); conditions: AAH 320 g/ha
How it was run: as §1

barnyard grass [5] = experiment: Test Example 4: herbicidal effect by soil treatment (Table 19, symbol H); format: in vivo, barnyard grass (Echinochloa crus-galli); conditions: AAH 320 g/ha
How it was run: as §1

green foxtail [6] = experiment: Test Example 5: herbicidal effect by foliage application, plastic box (Table 20, symbol G); format: in vivo, green foxtail (Setaria viridis); conditions: foliage application, AAH 320 g/ha, three weeks after application
How it was run: as §2

persian speedwell [7] = experiment: Test Example 5: herbicidal effect by foliage application, plastic box (Table 20, symbol R); format: in vivo, Persian speedwell (Veronica persica); conditions: foliage application, AAH 320 g/ha, three weeks after application
How it was run: as §2

redroot pigweed [8] = experiment: Test Example 5: herbicidal effect by foliage application, plastic box (Table 20, symbol N); format: in vivo, redroot pigweed (Amaranthus retroflexus); conditions: foliage application, AAH 320 g/ha, three weeks after application
How it was run: as §2

chickweed [9] = experiment: Test Example 4: herbicidal effect by soil treatment (Table 19, symbol P); format: in vivo, common chickweed (Stellaria media); conditions: AAH 320 g/ha
How it was run: as §1

barnyard grass [10] = experiment: Test Example 5: herbicidal effect by foliage application, plastic box (Table 20, symbol H); format: in vivo, barnyard grass (Echinochloa crus-galli); conditions: foliage application, AAH 320 g/ha, three weeks after application
How it was run: as §2

lambsquarters [11] = experiment: Test Example 5: herbicidal effect by foliage application, plastic box (Table 20, symbol O); format: in vivo, lambsquarters (Chenopodium album); conditions: foliage application, AAH 320 g/ha, three weeks after application
How it was run: as §2

persian speedwell [12] = experiment: Test Example 4: herbicidal effect by soil treatment (Table 19, symbol R); format: in vivo, Persian speedwell (Veronica persica); conditions: AAH 320 g/ha
How it was run: as §1

windgrass [13] = experiment: Test Example 5: herbicidal effect by foliage application, plastic box (Table 20, symbol L); format: in vivo, windgrass (Apera spica-venti); conditions: foliage application, AAH 320 g/ha, three weeks after application
How it was run: as §2

green foxtail [14] = experiment: Test Example 4: herbicidal effect by soil treatment (Table 19, symbol G); format: in vivo, green foxtail (Setaria viridis); conditions: AAH 320 g/ha
How it was run: as §1

southern crabgrass [15] = experiment: Test Example 5: herbicidal effect by foliage application, plastic box (Table 20, symbol F); format: in vivo, southern crabgrass (Digitaria ciliaris); conditions: foliage application, AAH 320 g/ha, three weeks after application
How it was run: as §2

wild oat [16] = experiment: Test Example 4: herbicidal effect by soil treatment (Table 19, symbol I); format: in vivo, wild oat (Avena fatua); conditions: AAH 320 g/ha
How it was run: as §1

blackgrass [17] = experiment: Test Example 5: herbicidal effect by foliage application, plastic box (Table 20, symbol J); format: in vivo, blackgrass (Alopecurus myosuroides); conditions: foliage application, AAH 320 g/ha, three weeks after application
How it was run: as §2

chickweed [18] = experiment: Test Example 5: herbicidal effect by foliage application, plastic box (Table 20, symbol P); format: in vivo, common chickweed (Stellaria media); conditions: foliage application, AAH 320 g/ha, three weeks after application
How it was run: as §2

velvetleaf [19] = experiment: Test Example 5: herbicidal effect by foliage application, plastic box (Table 20, symbol M); format: in vivo, velvetleaf (Abutilon theophrasti); conditions: foliage application, AAH 320 g/ha, three weeks after application
How it was run: as §2

velvetleaf [20] = experiment: Test Example 4: herbicidal effect by soil treatment (Table 19, symbol M); format: in vivo, velvetleaf (Abutilon theophrasti); conditions: AAH 320 g/ha
How it was run: as §1

redroot pigweed [21] = experiment: Test Example 4: herbicidal effect by soil treatment (Table 19, symbol N); format: in vivo, redroot pigweed (Amaranthus retroflexus); conditions: AAH 320 g/ha
How it was run: as §1

lambsquarters [22] = experiment: Test Example 4: herbicidal effect by soil treatment (Table 19, symbol O); format: in vivo, lambsquarters (Chenopodium album); conditions: AAH 320 g/ha
How it was run: as §1

Italian ryegrass [23] = experiment: Test Example 5: herbicidal effect by foliage application, plastic box (Table 20, symbol K); format: in vivo, Italian ryegrass (Lolium multiflorum); conditions: foliage application, AAH 320 g/ha, three weeks after application
How it was run: as §2

barnyard grass [24] = experiment: Test Example 3: herbicidal effect by foliage application, Wagner pot (Table 18, symbol H); format: in vivo, barnyard grass (Echinochloa crus-galli); conditions: 320 g/ha
How it was run: as §3

Italian ryegrass [25] = experiment: Test Example 4: herbicidal effect by soil treatment (Table 19, symbol K); format: in vivo, Italian ryegrass (Lolium multiflorum); conditions: AAH 320 g/ha
How it was run: as §1

Structure (SMILES): COc1nn(C)c(=O)c(-c2c(-c3ccc(F)c(F)c3)sc3ccccc23)c1O [1-172]
- J: blackgrass, herbicidal effect rating (blackgrass [1]): 0 (Herbicidal rate of 5% or less (almost no effect))
- Q: false cleavers, herbicidal effect (false cleavers): 5 (Herbicidal rate of 90% or more (almost completely withered))
- herbicidal effect on E (rice flat sedge), rating 0-5 (rice flat sedge): 5 (Herbicidal rate of 90% or more (almost completely withered))
- herbicidal effect on D (Chinese sprangletop), rating 0-5 (Chinese sprangletop): 0 (Herbicidal rate of 5% or less (almost no effect))
- L: windgrass, herbicidal effect rating (windgrass [2]): 0 (Herbicidal rate of 5% or less (almost no effect))
- I: wild oat, herbicidal effect (wild oat [3]): 0 (Herbicidal rate of 5% or less (almost no effect))
- F: southern crabgrass, herbicidal effect rating (southern crabgrass [4]): 2 (Herbicidal rate of 20% or more and less than 40%)
- H: barnyard grass, herbicidal effect rating (barnyard grass [5]): 0 (Herbicidal rate of 5% or less (almost no effect))
- G: green foxtail, herbicidal effect (green foxtail [6]): 4 (Herbicidal rate of 70% or more and less than 90%)
- R: persian speedwell, herbicidal effect (persian speedwell [7]): 5 (Herbicidal rate of 90% or more (almost completely withered))
- N: redroot pigweed, herbicidal effect (redroot pigweed [8]): 5 (Herbicidal rate of 90% or more (almost completely withered))
- P: chickweed, herbicidal effect rating (chickweed [9]): 5 (Herbicidal rate of 90% or more (almost completely withered))
- H: barnyard grass, herbicidal effect (barnyard grass [10]): 0 (Herbicidal rate of 5% or less (almost no effect))
- O: lambsquarters, herbicidal effect (lambsquarters [11]): 5 (Herbicidal rate of 90% or more (almost completely withered))
- R: persian speedwell, herbicidal effect rating (persian speedwell [12]): 5 (Herbicidal rate of 90% or more (almost completely withered))
- L: windgrass, herbicidal effect (windgrass [13]): 0 (Herbicidal rate of 5% or less (almost no effect))
- G: green foxtail, herbicidal effect rating (green foxtail [14]): 5 (Herbicidal rate of 90% or more (almost completely withered))
- F: southern crabgrass, herbicidal effect (southern crabgrass [15]): 0 (Herbicidal rate of 5% or less (almost no effect))
- I: wild oat, herbicidal effect rating (wild oat [16]): 0 (Herbicidal rate of 5% or less (almost no effect))
- J: blackgrass, herbicidal effect (blackgrass [17]): 0 (Herbicidal rate of 5% or less (almost no effect))
- P: chickweed, herbicidal effect (chickweed [18]): 5 (Herbicidal rate of 90% or more (almost completely withered))
- M: velvetleaf, herbicidal effect (velvetleaf [19]): 3 (Herbicidal rate of 40% or more and less than 70%)
- M: velvetleaf, herbicidal effect rating (velvetleaf [20]): 1 (Herbicidal rate of 5% or more and less than 20%)
- N: redroot pigweed, herbicidal effect rating (redroot pigweed [21]): 5 (Herbicidal rate of 90% or more (almost completely withered))
- O: lambsquarters, herbicidal effect rating (lambsquarters [22]): 5 (Herbicidal rate of 90% or more (almost completely withered))
- K: Italian ryegrass, herbicidal effect (Italian ryegrass [23]): 3 (Herbicidal rate of 40% or more and less than 70%)
- herbicidal effect on H (barnyard grass), rating 0-5 (barnyard grass [24]): 0 (Herbicidal rate of 5% or less (almost no effect))
- K: Italian ryegrass, herbicidal effect rating (Italian ryegrass [25]): 1 (Herbicidal rate of 5% or more and less than 20%)
